# Test results: patent publication US7273925B1, “Methods and products for regulating lectin complement pathway associated complement activation” (Brigham and Women's Hospital, Inc., priority 1998, dated 2007)
# Assays:
# MBL [1] = target: T1, MBL (Homo sapiens, UniProt P11226); test: iC3b (C3) deposition cell surface ELISA on hypoxic/reoxygenated HUVECs; format: cell-based; conditions: for attenuation of iC3b deposition: HUVECs 24 hr hypoxia, 3 hr reoxygenation; for iC3b deposition compared with normoxic HUVECs (FIG. 4a): 30 mmol/L in 30% human serum; for inhibition of iC3b deposition on hypoxic/reoxygenated HUVECs (in words): sugar at 3-300 mmol/L in 30% HS
# T1 construct: 3 hr of reoxygenation in the presence of 30% human serum (HS); from tissue; host or cells: human serum (30% HS on HUVECs; 2% human sera on mannan-coated plates)
# Experimental: Enzyme-Linked Immunoabsorbent Assay (ELISA) Experiments. […] HUVECs were grown to confluence on 0.1% gelatinized 96-well plastic plates (Corning Costar, Cambridge, Mass.). The plates were then subjected to 0 (normoxia) or 24 hr of hypoxia. Hypoxic stress was maintained using a humidified sealed chamber (Coy Laboratory Products, Inc., Grass Lake, Mich.) at 37° C. gassed with 1% O2, 5% CO2, balance N2 (Collard C D, et al., “Reoxygenation of hypoxic human umbilical vein endothelial cells activates the classical complement pathway”, Circulation 1997;96:326-333). Following the specified period of normoxia or hypoxia, the cell media were aspirated and 100 μl of one of the following was added to each well: 1) 30% HS, 2) Hank's balanced salt solution, 3) 30% HS+3, 30, or 300 mmol/L GluNAc, 4) 30% HS+3, 30, or 300 mmol/L D-mannose, 5) 30% HS+3, 30, 300 mmol/L L-mannose, 6) 30% MBL-depleted HS+3F8 (0, 20, 50 μg/ml)or 7) 30% MBL-depleted HS +0.6 μg/ml MBL. Additionally, 100 μl of purified MBL (3-300 ng/ml) was added to select wells to form a standard curve for quantitative analysis of MBL deposition. The cells were then reoxygenated for 3 hr at 37° C. in 95% air and 5% CO2. The cells were washed and then fixed with 1% paraformaldehyde (Sigma Chemical Co., St. Louis, Mo.) for 30 min. The cells were then washed and incubated at 4° C. for 1.5 hr with 50 μl of peroxidase-conjugated polyclonal goat anti-human C3 antibody (1:1000 dilution) or monoclonal anti-human MBL antibody (1:1000 dilution). The MBL ELISA plates were then washed and incubated for 1 hr at 4° C. with 50 μl of peroxidase-conjugated polyclonal goat anti-mouse IgG secondary antibody (1:1000 dilution). After washing the cells, the plates were developed with […] of ABTS (2,2′-azino-bis(3-ethylbenzthiazoline-6-sulfonic acid)), and read (Molecular Devices, Sunnyvale, Calif.) at 405 nm. Background controls for the C3 ELISA consisted of cells to which only the anti-human C3 antibody was added (i.e., no […]) or cells incubated with 30% heat-inactivated HS. Background controls for the MBL ELISA consisted of cells to which only secondary antibody and an isotype control monoclonal antibody to porcine C5a were added. Background optical density was subtracted from all groups. All ELISA experiments were performed 3 times using 6 wells per experimental group. Endothelial C3 and MBL deposition on normoxic vs. hypoxic […] was analyzed by two-way analysis of variance (ANOVA).
# HUVEC cell culture and quantitation of iC3b deposition by ELISA were performed as outlined in Example 2.
# Results. HUVECs were subjected to 0 or 24 hr of hypoxia followed by 3 hr of reoxygenation in the presence of 30% HS or 30% HS treated with 3, 30, or 300 mmol/L GluNAc, D-mannose or L-mannose in order to inhibit MBL deposition, LCP activation and iC3b deposition.
# HUBECs were hypoxic for 24 hours and then reoxygenated in 30% human sera. iC3b deposition was then normalized to normoxic cells.
# HUVECs = test: Microphysiometry of HUVEC extracellular acidification rate (EAR); format: cell-based, human; conditions: normoxic or hypoxic/reoxygenated HUVECs; MBL 300-1500 ng/ml, 40 min perfusion; histamine 1 μmol/L
# Experimental: Microphysiometry. Changes in HUVEC extracellular acidification rate (EAR) were evaluated by use of a Cytosensor microphysiometer (Molecular Devices, Sunnyvale, Calif.). HUVECs were grown to 75% confluence on gelatin-coated (1%) transwell capsules and subjected to 24 hr of hypoxia followed by 3 hr of reoxygenation. Following 30 min of equilibration in modified RPMI containing 1 mmol/L phosphate buffer (Molecular Devices, Sunnyvale, Calif.), the EARs were determined (Gronert K, et al., “Characterization of human neutrophil and endothelial cell ligand-operated extacellular acidification rate by microphysiometry: Impact of reoxygenation”, J. Pharmacol.Exp.Ther. 1998;285:252-261). HUVECs were perfused with 300-1500 ng/ml of purified MBL (dialyzed in the modified RPMI) for 30 sec before the first rate measurement and perfusion was maintained for 40 min. As a positive control, the HUVECs were perfused with media alone for 15 min following MBL exposure and then stimulated with histamine (1 μmol/L, 15 min perfusion) to evoke extracellular acidification. Each concentration of MBL was analyzed in two independent chambers containing normoxic or hypoxic/reoxygenated HUVECs. The HUVEC response to each MBL concentration was evaluated in 3 separate experiments (n=3).
# MBL [2] = target: T1, MBL; test: MBL deposition cell surface ELISA on hypoxic/reoxygenated HUVECs; format: cell-based; conditions: for attenuation of MBL deposition: HUVECs 24 hr hypoxia, 3 hr reoxygenation
# Experimental: C3 and MBL specific cell surface ELISAs can be performed using peroxidase-conjugated polyclonal goat anti-human C3 antibody (Cappel, West Chester, Pa.) and monoclonal anti-human MBL antibody (Biodesign, Kennebunk, Me., clone #131-1), respectively. HUVECs are grown to confluence on 0.1% gelatinized 96-well plastic plates (Corning Costar, Cambridge, Mass.). The plates are then subjected to 0 (normoxia) or 24 hr of hypoxia. Hypoxic stress is maintained using a humidified sealed chamber (Coy Laboratory Products, Inc., Grass Lake, Mich.) at 37° C. gassed with 1% O2, 5% CO2, balance N2 (Collard C D, et al., “Reoxygenation of hypoxic human umbilical vein endothelial cells activates the classical complement pathway”, Circulation, 1997;96:326-333). Following the specified period of normoxia or hypoxia, the cell media are aspirated and 100 μl of one the following is added to each well: 1) 30% HS, 2) Hank's balanced salt solution, 3) 30% HS +3, 30, or 300 mmol/L GluNAc, 4) 30% HS+3, 30, or 300 mmol/L D-mannose, 5) 30% HS+3, 30, 300 mmol/L L-mannose, 6) 30% MBL-depleted HS 7) 30% MBL-depleted HS+0.6 μg/ml MBL or 8) 30% HS+3, 30, or 300 mmol/L putative MBL binding peptide. Additionally, 100 μl of purified MBL (3-300 ng/ml) is added to select wells to form a standard curve for quantitative analysis of MBL deposition. The cells are then reoxygenated for 3 hr at 37° C. in 95% air and 5% CO2. The cells are washed and then fixed with 1% paraformaldehyde (Sigma Chemical Co., St. Louis, Mo.) for 30 min. The cells are then washed and incubated at 4° C. for 1.5 hr with 50 μl of peroxidase-conjugated polyclonal goat anti-human C3 antibody (1:1000 dilution) or monoclonal anti-human MBL antibody (1:1000 dilution). The MBL ELISA plates are then washed and incubated for 1 hr at 4° C. with 50 μl of peroxidase-conjugated polyclonal goat anti-mouse IgG secondary antibody (1:1000 dilution). After washing the cells, the plates are developed with 50 μl of ABTS (2,2′-azino-bis(3-ethylbenzthiazoline-6-sulfonic acid)), and read (Molecular Devices, Sunnyvale, Calif.) at 405 nm. Background controls for the C3 ELISA consist of cells to which only the anti-human C3 antibody is added (i.e., no HS) or cells incubated with 30% heat-inactivated HS. Background controls for the MBL ELISA consist of cells to which only secondary antibody and an isotype control monoclonal antibody to porcine C5a are added. Background optical density is subtracted from all groups. ELISA experiments are generally performed 3 times using 6 wells per experimental group. Endothelial C3 and MBL deposition on normoxic vs. hypoxic HUVECs is analyzed by two-way analysis of variance (ANOVA).
# Enzyme-Linked Immunoabsorbent Assay (ELISA) Experiments. […]
# MBL [3] = target: T1, MBL; test: Functional screen: C3 deposition on mannan-coated plates in 2% human sera; format: biochemical
# Experimental: Methods. The functional screen for inhibition of MBL function by anti-human MBL antibodies was adapted from the literature{Super, Levinsky, et al., The level of mannan-binding protein regulates the binding of complement-derived opsonins to mannanand zymosan at low serum concentrations, Clin. Exp. Immunol. 1990; 79:144-150}. Briefly, 100 μl of mcannan (0.5 mg/ml in sodium carbonate/bicarbonate buffer, pH 9.6) was added to RIA/EIA plates at 4C overnight. The plates were then washed 3 times in PBS/0.5% Tween pH 7.3, once in PBS and finally in veronal-buffered saline. Human serum is diluted to 4% in VBS containing 5 mM Ca^2+ and Mg^2+. Diluted sera and tissue culture supernatant or purified antibody (various concentrations) are then 1:1 to a mannan-coated well to yield a final volume or 100 μl at a concentration of 2% human sera. The plate is then incubated at 37C for 30 min. Positive and negative controls consist of human sera without and with 100 mM N-acetlglucosamine (GluNac). The plates are then washed four times in PBS/Tween. The plates are then incubated with an anti-human C3 polyclonal antibody coupled with HRP (1 hours at RT), washed and developed with ABTS and read at 405 nm.
# T1 sequence (P11226 21-248): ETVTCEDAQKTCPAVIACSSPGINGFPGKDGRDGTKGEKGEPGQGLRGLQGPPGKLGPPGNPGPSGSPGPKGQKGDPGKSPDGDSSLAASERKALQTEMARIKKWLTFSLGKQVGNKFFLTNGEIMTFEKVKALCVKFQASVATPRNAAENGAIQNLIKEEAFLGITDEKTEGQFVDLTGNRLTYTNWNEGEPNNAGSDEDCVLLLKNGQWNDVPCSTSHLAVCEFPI
molecule,measurement,setting,value
O=C[C@@H](O)[C@@H](O)[C@H](O)[C@H](O)CO [D-mannose],attenuation of iC3b deposition,MBL [1]; 3 mmol/L in 30% HS,19±2%
same,attenuation of iC3b deposition,MBL [1]; 30 mmol/L in 30% HS,52±3%
same,iC3b deposition compared with normoxic HUVECs (FIG. 4a),MBL [1],did not significantly differ from normoxic controls
same,attenuation of iC3b deposition,MBL [1]; 300 mmol/L in 30% HS,96±2%
same,inhibition of iC3b deposition on hypoxic/reoxygenated HUVECs (in words),MBL [1],significantly attenuated
O=C[C@H](O)[C@H](O)[C@@H](O)[C@@H](O)CO [L-mannose],iC3b deposition compared with normoxic HUVECs (FIG. 4a),MBL [1],significantly greater than normoxic HUVECs
same,"iC3b deposition, OD405","MBL [1]; hypoxic HUVECs reoxygenated in 30% HS treated with the sugar, normoxic 0.05±0.01",0.14±0.01
same,inhibition of iC3b deposition on hypoxic/reoxygenated HUVECs (in words),MBL [1],did not inhibit iC3b deposition
MBL: mannan-(or mannose) binding lectin purified from human plasma,change in extracellular acidification rate (EAR),HUVECs,did not evoke receptor-mediated changes in the EAR
"CC(=O)N[C@H]1C(O)O[C@H](CO)[C@@H](O)[C@@H]1O (stereo partly drawn) [GluNAc, N-acetyl-D-glucosamine]",attenuation of MBL deposition,MBL [2]; 3 mmol/L in 30% HS,40±4%
same,attenuation of MBL deposition,MBL [2]; 30 mmol/L in 30% HS,71±5%
same,attenuation of MBL deposition,MBL [2]; 300 mmol/L in 30% HS,96±3%
same,MBL deposition on hypoxic/reoxygenated HUVECs (in words),"MBL [2]; 3, 30, 300 mmol/L added to 30% HS, dose-dependent",significantly inhibited MBL deposition
same,iC3b deposition compared with normoxic HUVECs (FIG. 4a),MBL [1],did not significantly differ from normoxic controls
same,inhibition of iC3b deposition on hypoxic/reoxygenated HUVECs (in words),MBL [1],significantly attenuated
same,EC50,MBL [3],~1 nM
NCCc1c[nH]cn1 [histamine],change in extracellular acidification rate (EAR),HUVECs,all cells remained responsive
